Assay results from patent US4127665A, “Thienohydantoin derivatives” (Pfizer Inc., priority 1978, dated 1978).
Like-named read-outs stand apart in the source and are kept apart here.

What was measured:
aldose reductase = molecular target: T1, aldose reductase (Bos taurus, UniProt P16116); test: Inhibition of aldose reductase enzyme activity (partially purified enzyme from calf lens); format: biochemical; details: for inhibition at 100 µM: 10^-4 M; for inhibition at 10 µM: 10^-5 M; for inhibition at 1 µM: 10^-6 M; for inhibition at 1 µM / inhibition at 0.1 µM: low negative values not significant; for inhibition at 0.1 µM: 10^-7 M
T1 construct: partially purified aldose reductase enzyme obtained from calf lens; from tissue; host or cells: calf lens
Description: The spiro-thienohydantoins of Examples 1 through 5 were tested for their ability to reduce or inhibit aldose reductase enzyme activity, following the procedure described in U.S. Pat. No. 3,821,383 and based on the procedure of Hayman et. al., Journal of Biological Chemistry, 240, 877 (1965). The substrate employed was partially purified aldose reductase enzyme obtained from calf lens. The results obtained with each compound at a concentration of 10^-4 M are expressed as percent inhibition of enzyme activity.
The test of Example 6 was repeated at different concentrations of the compound under test, namely 10^-4 M, 10^-5 M, 10^-6 M, and 10^-7 M.
In this test, values below 20 are not always experimentally and statistically significant.

[1] = test system: sorbitol accumulation in the sciatic nerve of streptozotocinized (i.e., diabetic) rats; test: Inhibition of sorbitol accumulation in the sciatic nerve of streptozotocinized (diabetic) rats; format: in vivo, rat; details: measured 27 hours after induction, vs untreated
Description: The compounds of Examples 4 and 5 were tested for their ability to reduce or inhibit sorbitol accumulation in the sciatic nerve of streptozotocinized (i.e., diabetic) rats by the procedure essentially described in U.S. Pat. No. 3,821,383. In the present study, the amount of sorbitol accumulation in the sciatic nerves was measured 27 hours after induction of diabetes. The compounds were administered orally at the dose levels indicated at 4, 8 and 24 hours following the administration of streptozotocin. The results obtained in this manner are presented below in terms of percent inhibition (%) afforded by the test compound as compared to the case where no compound was administered (i.e., the untreated animal where sorbitol levels normally rise from approximately 50-100 mM/g. tissue to as high as 400 mM/g. tissue in the 27-hour test period): […]

[2] = Example 6 test, calf lens enzyme, read-out: % Inhibition at 10^-4 M
[3] = Example 7 repeat test, values below 20 not always significant, read-out: % Inhibition
[4] = Example 7 repeat test, values below 20 not always significant

inhibition at 100 µM (aldose reductase; [2]) | inhibition at 100 µM (aldose reductase; [3]) | inhibition at 10 µM (aldose reductase; [4]) | inhibition at 1 µM (aldose reductase; [4]) | inhibition at 0.1 µM (aldose reductase; [4]) | Structure (SMILES) | % Inhibition (sorbitol accumulation in sciatic nerve) ([1]; 2.5 mg/kg orally at 4, 8 and 24 hours after streptozotocin) | % Inhibition (sorbitol accumulation in sciatic nerve) ([1]; 25 mg/kg orally at 4, 8 and 24 hours after streptozotocin)
46% |  |  |  |  | O=C1NC(=O)C2(CCc3cscc32)N1 (stereo not shown) [Example 3] |  | 
80% | 75% | 55% | 18% | 15% | O=C1NC(=O)C2(CCc3sc(Cl)cc32)N1 (stereo not shown) [Example 4] | 20% | 

More lines, now with the values behind:

Structure (SMILES) | inhibition at 100 µM (aldose reductase; [2]) | inhibition at 100 µM (aldose reductase; [3]) | inhibition at 10 µM (aldose reductase; [4]) | inhibition at 1 µM (aldose reductase; [4]) | inhibition at 0.1 µM (aldose reductase; [4]) | % Inhibition (sorbitol accumulation in sciatic nerve) ([1]; 2.5 mg/kg orally at 4, 8 and 24 hours after streptozotocin) | % Inhibition (sorbitol accumulation in sciatic nerve) ([1]; 25 mg/kg orally at 4, 8 and 24 hours after streptozotocin)
O=C1NC(=O)C2(CCc3c(Cl)sc(Cl)c32)N1 (stereo not shown) [Example 1] | 83% | 88% | 67% | 12% | -7% |  | 
O=C1NC(=O)C2(CCc3c2csc3Cl)N1 (stereo not shown) [Example 2] | 95% | 35% | 67% | -12% | 21% |  | 
O=C1NC(=O)C2(CCCc3sccc32)N1 (stereo not shown) [Example 5, 6,7-dihydro-spiro[benzo(b)thiophene-4(5H),4'-imidazolidine]-2',5'-dione] | 52% |  |  |  |  |  | 56%
